{
  "source": "PubChem BioAssay AID1919006",
  "about": "(Molecular Pharmacology Branch, DTP, NCI, 2023)",
  "system": "885512-296-R-J2-PDC complex spheroid growth, % test/control",
  "assay": "Anticancer human tumor 885512-296-R-J2-PDC patient-derived breast carcinoma cell line growth inhibition [AhR]",
  "settings": "for viability, T/C: stronger effect = lower value",
  "outline": "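Spheroids combined tumor cells with HUVEC endothelial cells and human MSCs as stroma. AhR antagonists were paired with standard or investigational drugs, each dosed in half-log steps down from near clinical Cmax, or from 10 microM where Cmax was unknown.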",
  "key": {"[1]": {"settings": "curve of first compound, second compound 0.1 µM"}, "[2]": {"settings": "curve of first compound, second compound 0.316 µM"}, "[3]": {"settings": "curve of first compound, second compound 1 µM"}, "[4]": {"settings": "curve of first compound, second compound 3.16 µM"}, "[5]": {"settings": "curve of first compound, second compound 10 µM"}, "[6]": {"settings": "second compound 0.1 µM, first compound 0.0316 µM"}, "[7]": {"settings": "second compound 0.1 µM, first compound 0.1 µM"}, "[8]": {"settings": "second compound 0.1 µM, first compound 0.316 µM"}, "[9]": {"settings": "second compound 0.1 µM, first compound 1 µM"}, "[10]": {"settings": "second compound 0.1 µM, first compound 3.16 µM"}, "[11]": {"settings": "second compound 0.1 µM, first compound 10 µM"}, "[12]": {"settings": "second compound 0.316 µM, first compound 0.0316 µM"}, "[13]": {"settings": "second compound 0.316 µM, first compound 0.1 µM"}, "[14]": {"settings": "second compound 0.316 µM, first compound 0.316 µM"}, "[15]": {"settings": "second compound 0.316 µM, first compound 1 µM"}, "[16]": {"settings": "second compound 0.316 µM, first compound 3.16 µM"}, "[17]": {"settings": "second compound 0.316 µM, first compound 10 µM"}, "[18]": {"settings": "second compound 1 µM, first compound 0.0316 µM"}, "[19]": {"settings": "second compound 1 µM, first compound 0.1 µM"}, "[20]": {"settings": "second compound 1 µM, first compound 0.316 µM"}, "[21]": {"settings": "second compound 1 µM, first compound 1 µM"}, "[22]": {"settings": "second compound 1 µM, first compound 3.16 µM"}, "[23]": {"settings": "second compound 1 µM, first compound 10 µM"}, "[24]": {"settings": "second compound 3.16 µM, first compound 0.0316 µM"}, "[25]": {"settings": "second compound 3.16 µM, first compound 0.1 µM"}, "[26]": {"settings": "second compound 3.16 µM, first compound 0.316 µM"}, "[27]": {"settings": "second compound 3.16 µM, first compound 1 µM"}, "[28]": {"settings": "second compound 3.16 µM, first compound 3.16 µM"}, "[29]": {"settings": "second compound 3.16 µM, first compound 10 µM"}, "[30]": {"settings": "second compound 10 µM, first compound 0.0316 µM"}, "[31]": {"settings": "second compound 10 µM, first compound 0.1 µM"}, "[32]": {"settings": "second compound 10 µM, first compound 0.316 µM"}, "[33]": {"settings": "second compound 10 µM, first compound 1 µM"}, "[34]": {"settings": "second compound 10 µM, first compound 3.16 µM"}, "[35]": {"settings": "second compound 10 µM, first compound 10 µM"}},
  "note": "Values joined by “and” are separate entries in the source; they are usually repeats but may differ in a detail not shown here. Equal values may be shown once.",
  "data": [
    {"molecule": "NS(=O)(=O)OCC1CC(n2ccc3c(NC4CCc5ccccc54)ncnc32)CC1O", "note": "(stereo not drawn) + Cc1ccccc1N=Nc1ccc(NC(=O)c2ccnn2C)c(C)c1;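 further: spheroids exposed to compounds for seven days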", "values": [
      {"measurement": "IC50", "setting": "[1]", "value": 94.9, "unit": "nM"},
      {"measurement": "IC50", "setting": "[2]", "value": 90.1, "unit": "nM"},
      {"measurement": "IC50", "setting": "[3]", "value": 88.2, "unit": "nM"},
      {"measurement": "IC50", "setting": "[4]", "value": 80.5, "unit": "nM"},
      {"measurement": "IC50", "setting": "[5]", "value": 57.6, "unit": "nM"},
      {"measurement": "viability, T/C", "setting": "[6]", "value": 93.2, "unit": "%"},
      {"measurement": "viability, T/C", "setting": "[7]", "value": 47.9, "unit": "%"},
      {"measurement": "viability, T/C", "setting": "[8]", "value": 16.2, "unit": "%"},
      {"measurement": "viability, T/C", "setting": "[9]", "value": 6.95, "unit": "%"},
      {"measurement": "viability, T/C", "setting": "[10]", "value": 4.75, "unit": "%"},
      {"measurement": "viability, T/C", "setting": "[11]", "value": 5.39, "unit": "%"},
      {"measurement": "viability, T/C", "setting": "[12]", "value": 94.9, "unit": "%"},
      {"measurement": "viability, T/C", "setting": "[13]", "value": 45.5, "unit": "%"},
      {"measurement": "viability, T/C", "setting": "[14]", "value": 14.1, "unit": "%"},
      {"measurement": "viability, T/C", "setting": "[15]", "value": 6.56, "unit": "%"},
      {"measurement": "viability, T/C", "setting": "[16]", "value": 4.96, "unit": "%"},
      {"measurement": "viability, T/C", "setting": "[17]", "value": 5.27, "unit": "%"},
      {"measurement": "viability, T/C", "setting": "[18]", "value": 96.5, "unit": "%"},
      {"measurement": "viability, T/C", "setting": "[19]", "value": 44.2, "unit": "%"},
      {"measurement": "viability, T/C", "setting": "[20]", "value": 16.7, "unit": "%"},
      {"measurement": "viability, T/C", "setting": "[21]", "value": 7.31, "unit": "%"},
      {"measurement": "viability, T/C", "setting": "[22]", "value": 5.64, "unit": "%"},
      {"measurement": "viability, T/C", "setting": "[23]", "value": 6.16, "unit": "%"},
      {"measurement": "viability, T/C", "setting": "[24]", "value": 84.5, "unit": "%"},
      {"measurement": "viability, T/C", "setting": "[25]", "value": 42, "unit": "%"},
      {"measurement": "viability, T/C", "setting": "[26]", "value": 14.1, "unit": "%"},
      {"measurement": "viability, T/C", "setting": "[27]", "value": 6.49, "unit": "%"},
      {"measurement": "viability, T/C", "setting": "[28]", "value": 4.75, "unit": "%"},
      {"measurement": "viability, T/C", "setting": "[29]", "value": 5.47, "unit": "%"},
      {"measurement": "viability, T/C", "setting": "[30]", "value": 67, "unit": "%"},
      {"measurement": "viability, T/C", "setting": "[31]", "value": 34.3, "unit": "%"},
      {"measurement": "viability, T/C", "setting": "[32]", "value": 13.7, "unit": "%"},
      {"measurement": "viability, T/C", "setting": "[33]", "value": 4.96, "unit": "%"},
      {"measurement": "viability, T/C", "setting": "[34]", "value": 3.85, "unit": "%"},
      {"measurement": "viability, T/C", "setting": "[35]", "value": 4.91, "unit": "%"}
    ]},
    {"molecule": "Nc1ccccc1NC(=O)c1ccc(CNC(=O)OCc2cccnc2)cc1", "note": "+ CC(CO)NC(=O)c1cc(-c2ccc(Cl)cc2)nn(-c2cnn(C)c2)c1=O", "values": [
      {"measurement": "IC50", "setting": "[1]", "value": 696, "unit": "nM"},
      {"measurement": "IC50", "setting": "[2]", "value": 620, "unit": "nM"},
      {"measurement": "IC50", "setting": "[3]", "value": 704, "unit": "nM"},
      {"measurement": "IC50", "setting": "[4]", "value": 590, "unit": "nM"},
      {"measurement": "IC50", "setting": "[5]", "value": 452, "unit": "nM"},
      {"measurement": "viability, T/C", "setting": "[6]", "value": 91.9, "unit": "%"},
      {"measurement": "viability, T/C", "setting": "[7]", "value": 76.4, "unit": "%"},
      {"measurement": "viability, T/C", "setting": "[8]", "value": 61.9, "unit": "%"},
      {"measurement": "viability, T/C", "setting": "[9]", "value": 42, "unit": "%"},
      {"measurement": "viability, T/C", "setting": "[10]", "value": 31.8, "unit": "%"},
      {"measurement": "viability, T/C", "setting": "[11]", "value": 13, "unit": "%"},
      {"measurement": "viability, T/C", "setting": "[12]", "value": 85.1, "unit": "%"},
      {"measurement": "viability, T/C", "setting": "[13]", "value": 70.3, "unit": "%"},
      {"measurement": "viability, T/C", "setting": "[14]", "value": 62.2, "unit": "%"},
      {"measurement": "viability, T/C", "setting": "[15]", "value": 43.4, "unit": "%"},
      {"measurement": "viability, T/C", "setting": "[16]", "value": 24.6, "unit": "%"},
      {"measurement": "viability, T/C", "setting": "[17]", "value": 11.6, "unit": "%"},
      {"measurement": "viability, T/C", "setting": "[18]", "value": 92.8, "unit": "%"},
      {"measurement": "viability, T/C", "setting": "[19]", "value": 80.2, "unit": "%"},
      {"measurement": "viability, T/C", "setting": "[20]", "value": 58.8, "unit": "%"},
      {"measurement": "viability, T/C", "setting": "[21]", "value": 44, "unit": "%"},
      {"measurement": "viability, T/C", "setting": "[22]", "value": 32.6, "unit": "%"},
      {"measurement": "viability, T/C", "setting": "[23]", "value": 11.6, "unit": "%"},
      {"measurement": "viability, T/C", "setting": "[24]", "value": 85.4, "unit": "%"},
      {"measurement": "viability, T/C", "setting": "[25]", "value": 78.6, "unit": "%"},
      {"measurement": "viability, T/C", "setting": "[26]", "value": 59, "unit": "%"},
      {"measurement": "viability, T/C", "setting": "[27]", "value": 36.8, "unit": "%"},
      {"measurement": "viability, T/C", "setting": "[28]", "value": 31.4, "unit": "%"},
      {"measurement": "viability, T/C", "setting": "[29]", "value": 9.96, "unit": "%"},
      {"measurement": "viability, T/C", "setting": "[30]", "value": 82.6, "unit": "%"},
      {"measurement": "viability, T/C", "setting": "[31]", "value": 74.2, "unit": "%"},
      {"measurement": "viability, T/C", "setting": "[32]", "value": 55.5, "unit": "%"},
      {"measurement": "viability, T/C", "setting": "[33]", "value": 34, "unit": "%"},
      {"measurement": "viability, T/C", "setting": "[34]", "value": 24.1, "unit": "%"},
      {"measurement": "viability, T/C", "setting": "[35]", "value": 6.25, "unit": "%"}
    ]},
    {"molecule": "Cc1ccccc1N=Nc1ccc(NC(=O)c2ccnn2C)c(C)c1", "values": [
      {"measurement": "viability, T/C", "setting": "compound 10 µM", "value": "53.1% [middle of 21 runs]"}
    ]},
    {"molecule": "CC(C)c1c(-c2ccccc2)nc2c(C#N)c[nH]n2c1=O", "values": [
      {"measurement": "viability, T/C", "setting": "compound 0.0316 µM", "value": "93.1% and 105% and 113%"},
      {"measurement": "viability, T/C", "setting": "compound 0.1 µM", "value": "103% and 96.8% and 99.5%"},
      {"measurement": "viability, T/C", "setting": "compound 0.316 µM", "value": "107% and 97.7% and 89%"},
      {"measurement": "viability, T/C", "setting": "compound 1 µM", "value": "95.2% and 98.4% and 113%"},
      {"measurement": "viability, T/C", "setting": "compound 3.16 µM", "value": "96.8% and 100% (2×)"},
      {"measurement": "viability, T/C", "setting": "compound 10 µM", "value": "90.8% and 92% and 95.9%"},
      {"measurement": "IC50", "setting": "curve of compound", "value": "> 10000", "unit": "nM"}
    ]}
  ]
}
